Earlier results on six molecules are cited in patent US6262108A, “Medicinal use of cromoglycic acid compounds” (Kyoto Pharmaceutical Industries, Ltd., priority 1997, dated 2001).

Counter-ions that a name gives are not always drawn.

Series [1] concerns contact dermatitis and atopic dermatitis. Conditions: background statement on conventional antiallergic agents; cited from earlier work.
In series [2] the test system is type IV allergic reaction. Conditions: background statement, postulated, with literature references; cited from earlier work.

In the case of `CCOCCn1c(N2CCCN(C)CC2)nc2ccccc21` [emedastine difumarate], the “therapeutic effects on contact dermatitis and atopic dermatitis” value (“therapeutic effects” for short) in series [1] is “either ineffective or fail to show satisfactory therapeutic effects”. The “type IV allergic reaction-inhibitory action” value in series [2] was “failure to show a type IV allergic reaction-inhibitory action”.

Turning to `NC1=NCC2c3ccccc3Cc3ccccc3N12` (stereo not drawn) [epinastine hydrochloride], in series [1], the “therapeutic effects” value is on record as “either ineffective or fail to show satisfactory therapeutic effects”. Also, the “type IV allergic reaction-inhibitory action” value in series [2] is “failure to show a type IV allergic reaction-inhibitory action”.

With `O=c1[nH]c2ccccc2n1CCCN1CCN(C(c2ccccc2)c2ccccc2)CC1` [oxatomide], the “therapeutic effects” value in series [1] is reported as “either ineffective or fail to show satisfactory therapeutic effects”. The “type IV allergic reaction-inhibitory action” value in series [2] is reported as “failure to show a type IV allergic reaction-inhibitory action”.

`Cc1cccn2c(=O)c(-c3nnn[nH]3)cnc12` [pemirolast potassium]: the “therapeutic effects” value in series [1] is “either ineffective or fail to show satisfactory therapeutic effects”. Moreover, the “type IV allergic reaction-inhibitory action” value in series [2] was “failure to show a type IV allergic reaction-inhibitory action”.

As for `Cc1ccc2c([nH]c(=O)c3c(=O)cc(C(=O)OCCC(C)C)oc32)c1C` [repirinast], the “therapeutic effects” value in series [1] was “either ineffective or fail to show satisfactory therapeutic effects”. The “type IV allergic reaction-inhibitory action” value in series [2] is “failure to show a type IV allergic reaction-inhibitory action”.

Regarding `COc1ccc(/C=C/C(=O)Nc2ccccc2C(=O)O)cc1OC` [tranilast], the “therapeutic effects” value in series [1] is listed as “either ineffective or fail to show satisfactory therapeutic effects”. In addition, the “type IV allergic reaction-inhibitory action” value in series [2] is “failure to show a type IV allergic reaction-inhibitory action”.
